{"source": "paper PMC7520961", "about": "“Safety evaluation of the interchangeable use of robenacoxib in commercially-available tablets and solution for injection in cats” (BMC Veterinary Research, 2020)", "key": {"cats": {"tested_on": "cats", "experiment": "Hematology, coagulation and urinalysis (target animal safety study)", "type": "in vivo, cat", "conditions": "for Absolute Punctate Reticulocyte (mean ± SD) / Basophils (mean ± SD) / Other Cells (mean ± SD) / Monocytes (mean ± SD) / Eosinophils (mean ± SD) / Neutrophils (mean ± SD) / Lymphocytes (mean ± SD) / Erythrocytes (mean ± SD) / Leukocytes (mean ± SD) / Hemoglobin (mean ± SD) / Prothrombin Time (mean ± SD) / APTT (mean ± SD) / MCH (mean ± SD) / Absolute Aggregate Reticulocyte (mean ± SD) / Hematocrit (mean ± SD) / MCHC (mean ± SD) / MCV (mean ± SD) / Platelets (mean ± SD) / Fibrinogen (mean ± SD): post-treatment, average of days 13 and 37; for Basophils (mean ± SD): reference range 0 - 0.03; for Other Cells (mean ± SD): reference range 0 - 0.05; for Monocytes (mean ± SD): reference range 0 - 0.81; for Eosinophils (mean ± SD): reference range 0 - 1.31, significant treatment x sex effect (p<0.1); for Neutrophils (mean ± SD): reference range 0 - 12.65; for Lymphocytes (mean ± SD): reference range 2.18 - 13.48; for Erythrocytes (mean ± SD): reference range 5.36 - 10.78; for Leukocytes (mean ± SD): reference range 6.3 - 27.2; for Hemoglobin (mean ± SD): reference range 7.5 - 14.4; for Prothrombin Time (mean ± SD): reference range 8.7 - 11; for APTT (mean ± SD): reference range 11.2 - 18.7; for MCH (mean ± SD): reference range 11.9 - 15.1; for Absolute Aggregate Reticulocyte (mean ± SD): reference range 12.9 - 106.6; for Hematocrit (mean ± SD): reference range 22.5 - 41.6; for MCHC (mean ± SD): reference range 30.4 - 38; for MCV (mean ± SD): reference range 34.3 - 47.5; for Platelets (mean ± SD): reference range 107 - 779; for Fibrinogen (mean ± SD): reference range 152 - 278", "description": "Buccal mucosal bleeding times (BMBT) were measured on all animals on Days − 5 and 36 following ECG examinations while the animals were sedated. The upper lip was everted and a Surgicutt incision device was used to create a small incision (approximately 1 mm in depth and 3.5 mm in length). Blood flow from the incision site was blotted using filter paper below the incision. The elapsed time from the triggering of the device until blood no longer appeared on the filter paper was recorded as the bleed time. Clinical pathology evaluations were conducted on all animals on Days − 13 and − 6 and prior to dosing on Days 13 and 37. Because reference values given by the laboratory were (slightly) different for males and females, they were combined (i.e. lower of the two lower bounds to higher of the two upper bounds) for the tables. Animals were fasted 8–12 hours overnight prior to blood collection. Blood samples (3.0 mL) were collected from the jugular vein into tubes containing K3EDTA for evaluation of hematology parameters, sodium citrate for evaluation of coagulation parameters, and serum separators with no anticoagulant for the clinical chemistry samples. Urine samples were collected on Days […], 13, and 37 by replacing the litter in the litter box with NoSorb® (Creative Science, LLC, Ballwin, MO, USA) for at least 16 hours. Hematology variables were determined using an Advia 120 or Advia 2120 (Siemens, Munich, Germany), light microscope, or sediplast column (Polymedco, NY, US). Coagulation variables were determined using a Stago Compact (Diagnostica Stago, Parsippany, NJ, US), clinical chemistry variables were determined using an Olympus AU2700 or AU640e (Olympus Diagnostics, Southall, UK), and urinalysis variables were determined using a Clinitek-500 or Atlas (Siemens, Munich, Germany), Reichert VET 360 (Reichert Technologies, Buffalo, New York, USA), or light microscope.\nPost-treatment values were analyzed using RMANCOVA, with treatment group, sex, time, and their interactions as fixed model effects and the pre-treatment value measured closest to dosing as a covariate. Repeated measurements in the same animal were modeled using a compound symmetry or heterogeneous compound symmetry correlation structure (for food consumption: autoregressive first-order or heterogeneous autoregressive first-order); the model with the smallest Akaike’s Information Criterion was selected for each outcome.\nIf any of the interactions involving treatment was significant (p < 0.1 for the two-factor interactions or p < 0.05 for the three-factor interaction), it was inappropriate to evaluate the main or overall treatment effect independently of the interacting factor and, as such, treatment comparisons were conducted for each level of the interacting factor. If none of the interactions involving treatment were significant, overall treatment differences were assessed."}, "[1]": {"parameters": "method as in PMID 19161452, PMID 23438125", "conditions": "elimination in the cat; cited from earlier work"}, "[2]": {"conditions": "1X (oral ≥2.4, SC 2.0 mg/kg/day)"}, "[3]": {"conditions": "2X (oral ≥4.8, SC 4.0 mg/kg/day)"}, "[4]": {"conditions": "3X (oral ≥7.2, SC 6.0 mg/kg/day)"}}}
{"smiles": "CCc1ccc(Nc2c(F)c(F)cc(F)c2F)c(CC(=O)O)c1", "note": "[robenacoxib]", "values": [{"measurement": "Absolute Punctate Reticulocyte (mean ± SD)", "setting": "cats; [2]", "result": "2277 ± 658 10^3/µL"}, {"measurement": "Basophils (mean ± SD)", "setting": "cats; [2]", "result": "0.006 ± 0.011 10^3/µL"}, {"measurement": "Other Cells (mean ± SD)", "setting": "cats; [2]", "result": "0.62 ± 0.95 10^3/µL"}, {"measurement": "Monocytes (mean ± SD)", "setting": "cats; [2]", "result": "0.27 ± 0.22 10^3/µL"}, {"measurement": "Eosinophils (mean ± SD)", "setting": "cats; [2]", "result": "1.08 ± 0.40 10^3/µL"}, {"measurement": "Neutrophils (mean ± SD)", "setting": "cats; [2]", "result": "5.28 ± 1.75 10^3/µL"}, {"measurement": "Lymphocytes (mean ± SD)", "setting": "cats; [2]", "result": "6.69 ± 2.61 10^3/µL"}, {"measurement": "Erythrocytes (mean ± SD)", "setting": "cats; [2]", "result": "7.24 ± 0.88 10^6/µL"}, {"measurement": "Leukocytes (mean ± SD)", "setting": "cats; [2]", "result": "13.95 ± 4.43 10^3/µL"}, {"measurement": "Hemoglobin (mean ± SD)", "setting": "cats; [2]", "result": "9.96 ± 0.98", "unit": "g/dL"}, {"measurement": "Prothrombin Time (mean ± SD)", "setting": "cats; [2]", "result": "11.03 ± 0.62", "unit": "s"}, {"measurement": "APTT (mean ± SD)", "setting": "cats; [2]", "result": "23.35 ± 16.35", "unit": "s"}, {"measurement": "MCH (mean ± SD)", "setting": "cats; [2]", "result": "13.82 ± 0.81", "unit": "pg"}, {"measurement": "Absolute Aggregate Reticulocyte (mean ± SD)", "setting": "cats; [2]", "result": "4.02 ± 4.81 10^3/µL"}, {"measurement": "Hematocrit (mean ± SD)", "setting": "cats; [2]", "result": "30.66 ± 3.36", "unit": "%"}, {"measurement": "MCHC (mean ± SD)", "setting": "cats; [2]", "result": "32.53 ± 0.55", "unit": "g/dL"}, {"measurement": "MCV (mean ± SD)", "setting": "cats; [2]", "result": "42.49 ± 2.78", "unit": "fL"}, {"measurement": "Platelets (mean ± SD)", "setting": "cats; [2]", "result": "253.7 ± 157.1 10^3/µL"}, {"measurement": "Fibrinogen (mean ± SD)", "setting": "cats; [2]", "result": "180.8 ± 37.0", "unit": "mg/dL"}, {"measurement": "Absolute Punctate Reticulocyte (mean ± SD)", "setting": "cats; [3]", "result": "1915 ± 702 10^3/µL"}, {"measurement": "Basophils (mean ± SD)", "setting": "cats; [3]", "result": "0.010 ± 0.011 10^3/µL"}, {"measurement": "Other Cells (mean ± SD)", "setting": "cats; [3]", "result": "0.30 ± 0.71 10^3/µL"}, {"measurement": "Monocytes (mean ± SD)", "setting": "cats; [3]", "result": "0.28 ± 0.14 10^3/µL"}, {"measurement": "Eosinophils (mean ± SD)", "setting": "cats; [3]", "result": "0.94 ± 0.52 10^3/µL"}, {"measurement": "Neutrophils (mean ± SD)", "setting": "cats; [3]", "result": "5.73 ± 1.34 10^3/µL"}, {"measurement": "Lymphocytes (mean ± SD)", "setting": "cats; [3]", "result": "6.16 ± 1.81 10^3/µL"}, {"measurement": "Erythrocytes (mean ± SD)", "setting": "cats; [3]", "result": "7.58 ± 0.82 10^6/µL"}, {"measurement": "Leukocytes (mean ± SD)", "setting": "cats; [3]", "result": "13.43 ± 3.10 10^3/µL"}, {"measurement": "Hemoglobin (mean ± SD)", "setting": "cats; [3]", "result": "9.99 ± 1.06", "unit": "g/dL"}, {"measurement": "Prothrombin Time (mean ± SD)", "setting": "cats; [3]", "result": "10.77 ± 0.56", "unit": "s"}, {"measurement": "APTT (mean ± SD)", "setting": "cats; [3]", "result": "16.68 ± 2.52", "unit": "s"}, {"measurement": "MCH (mean ± SD)", "setting": "cats; [3]", "result": "13.21 ± 0.99", "unit": "pg"}, {"measurement": "Absolute Aggregate Reticulocyte (mean ± SD)", "setting": "cats; [3]", "result": "1.38 ± 4.14 10^3/µL"}, {"measurement": "Hematocrit (mean ± SD)", "setting": "cats; [3]", "result": "30.17 ± 3.65", "unit": "%"}, {"measurement": "MCHC (mean ± SD)", "setting": "cats; [3]", "result": "33.14 ± 0.65", "unit": "g/dL"}, {"measurement": "MCV (mean ± SD)", "setting": "cats; [3]", "result": "39.86 ± 3.11", "unit": "fL"}, {"measurement": "Platelets (mean ± SD)", "setting": "cats; [3]", "result": "334.7 ± 155.9 10^3/µL"}, {"measurement": "Fibrinogen (mean ± SD)", "setting": "cats; [3]", "result": "180.3 ± 22.2", "unit": "mg/dL"}, {"measurement": "Absolute Punctate Reticulocyte (mean ± SD)", "setting": "cats; [4]", "result": "2129 ± 555 10^3/µL"}, {"measurement": "Basophils (mean ± SD)", "setting": "cats; [4]", "result": "0.006 ± 0.007 10^3/µL"}, {"measurement": "Other Cells (mean ± SD)", "setting": "cats; [4]", "result": "0.44 ± 0.92 10^3/µL"}, {"measurement": "Monocytes (mean ± SD)", "setting": "cats; [4]", "result": "0.26 ± 0.15 10^3/µL"}, {"measurement": "Eosinophils (mean ± SD)", "setting": "cats; [4]", "result": "1.10 ± 0.40 10^3/µL"}, {"measurement": "Neutrophils (mean ± SD)", "setting": "cats; [4]", "result": "5.46 ± 1.04 10^3/µL"}, {"measurement": "Lymphocytes (mean ± SD)", "setting": "cats; [4]", "result": "7.50 ± 2.64 10^3/µL"}, {"measurement": "Erythrocytes (mean ± SD)", "setting": "cats; [4]", "result": "7.73 ± 0.88 10^6/µL"}, {"measurement": "Leukocytes (mean ± SD)", "setting": "cats; [4]", "result": "14.76 ± 3.66 10^3/µL"}, {"measurement": "Hemoglobin (mean ± SD)", "setting": "cats; [4]", "result": "10.13 ± 1.15", "unit": "g/dL"}, {"measurement": "Prothrombin Time (mean ± SD)", "setting": "cats; [4]", "result": "10.84 ± 0.46", "unit": "s"}, {"measurement": "APTT (mean ± SD)", "setting": "cats; [4]", "result": "16.83 ± 2.52", "unit": "s"}, {"measurement": "MCH (mean ± SD)", "setting": "cats; [4]", "result": "13.11 ± 0.65", "unit": "pg"}, {"measurement": "Absolute Aggregate Reticulocyte (mean ± SD)", "setting": "cats; [4]", "result": "1.45 ± 4.17 10^3/µL"}, {"measurement": "Hematocrit (mean ± SD)", "setting": "cats; [4]", "result": "30.90 ± 3.81", "unit": "%"}, {"measurement": "MCHC (mean ± SD)", "setting": "cats; [4]", "result": "32.80 ± 1.57", "unit": "g/dL"}, {"measurement": "MCV (mean ± SD)", "setting": "cats; [4]", "result": "40.03 ± 2.65", "unit": "fL"}, {"measurement": "Platelets (mean ± SD)", "setting": "cats; [4]", "result": "301.4 ± 173.8 10^3/µL"}, {"measurement": "Fibrinogen (mean ± SD)", "setting": "cats; [4]", "result": "172.5 ± 16.3", "unit": "mg/dL"}, {"measurement": "coagulation or urinalysis values between groups", "setting": "cats; all groups during the study", "result": "no significant differences"}, {"measurement": "half-life", "setting": "[1]", "result": "less than 2 hours"}]}
